# Key:
# mab 274D / AChR = test: Inhibition of binding of mab 274D to AChR by peptides; set-up: species or system Torpedo nobiliana; details: ELISA; tested at concentrations exceeding 36 uM
# mab 264E / AChR = test: Inhibition of binding of mab 264E to AChR by peptides; set-up: species or system Torpedo nobiliana; details: ELISA; tested at concentrations exceeding 36 uM
# [1] = tested on: a-toxin binding to the receptor, extracted membranes; test: Inhibition of a-toxin labeling of membranes; set-up: species or system Torpedo californica; details: 10 mM carbamylcholine added to the solutions of the toxin; Fig. 6H
compound,measurement,setting,value
Ac-PFEGDPFDYSSDHPRG-OH [Delta-peptide 485-499],inhibition of binding of mab 274D to AChR,mab 274D / AChR,failed to inhibit the binding of either mab
same,inhibition of binding of mab 264E to AChR,mab 264E / AChR,failed to inhibit the binding of either mab
C[N+](C)(C)CCOC(N)=O.[Cl-] [carbamylcholine],labeling of a-toxin sites in presence of competitor,[1],substantially reduced the labeling
